Results as given in PMC7731379, “Withanolide-Type Steroids from Withania aristata as Potential Anti-Leukemic Agents” (Molecules, 2020).
Where two headings read alike, the source gives them in different places.

Key:
in vitro = settings: African green monkey
Description: (§1) HL-60 (human promyelocytic leukemia cell line) and Vero (African green monkey kidney) cell lines from American Type Culture Collection (ATCC-LGC) were each grown in Dulbecco’s modified Eagle’s medium (DMEM) with 4.5 g/L glucose (Sigma-Aldrich), supplemented with 10% fetal bovine serum (Gibco), 1% of a penicillin–streptomycin mixture (10.000 and 10 mg/mL, respectively), and 200 mM L-glutamine. Cells were maintained at 37 °C in 5% CO2 and 98% humidity.
(§2) Viable cells were assessed using the colorimetric MTT [3-(4,5-dimethylthiazol-2-yl)-2,5-diphenyl tetrazolium bromide reduction assay [49]. A cell suspension (1 × 10^4 /200 μL/well) in log-phase of growth seeded in DMEM, supplemented with 5% fetal bovine serum in microtiter well plates (96 wells, Iwaki, London, UK) were added to compounds predissolved in dimethylsulphoxide (DMSO) at different concentrations. After 48 h of incubation, 20 μL/well of the MTT solution (5 mg/mL in phosphate buffered saline, PBS) were added and plates incubated for 4 h at 37 °C. Subsequently, the medium/MTT solutions were removed carefully by aspiration and replaced with 150 μL/well of DMSO to dissolve the formazan crystals. Absorbance was measured in a microplate reader (Infinite M200, Tecan) at a wavelength of 550 nm. Solvent control cultures were considered 100% and percentage of viable treated cells were plotted against compound concentrations. The 50% cell viability value (IC50) was calculated from the curve. Each experiment was performed at least three times in triplicates. Data are given in arithmetic means ± SD. Selectivity ratio was defined as IC50 value for the tumoral cell line divided by IC50 value for the Vero cell line.

[1] = system: HL-60 (human promyelocytic leukemia cell line); test: MTT cell viability (antiproliferative) assay, HL-60; settings: for IC50: mean ± SD of three independent experiments; for SI (selectivity index): Vero (IC50) on HL-60 (IC50)
Description: as §1, §2

[2] = system: Vero (African green monkey kidney) cell line; test: MTT cell viability assay, non-tumoral Vero cells; settings: read-out: Cytotoxic activity IC50, Vero; MTT, 48 h incubation; mean ± SD of three independent experiments
Description: as §1, §2

[3] = system: HL-60 (human promyelocytic leukemia cell line); settings: 48 h
Description: as §1, §2

[4] = MTT cell viability assay, non-tumoral Vero cells; settings: African green monkey, Vero cells (African green monkey kidney, non-tumoral)
Description: as §1, §2

[5] = system: Vero (African green monkey kidney) cell line; settings: 48 h
Description: as §1, §2

[6] = Homo sapiens, HL-60, 48 h, read-out: Cytotoxic activity IC50, HL 60, MTT, 48 h incubation
[7] = read-out: Cytotoxic activity IC50, HL 60, MTT, 48 h incubation
[8] = Cytotoxic activity IC50, Vero, MTT, 48 h incubation, mean ± SD of three independent experiments

| Compound | IC50 at 48 h (in vitro; Cytotoxic activity IC50, Vero) | IC50 [1, 6] | SI (selectivity index) [1] | further results |
| --- | --- | --- | --- | --- |
| CC1=C(CO)C(=O)OC(C(C)C2=CCC3C4CC=C5C(=O)C=CC(=O)C5(C)C4CCC23C)C1 (stereo not shown) [Compound 8, 27-hydroxy-1,4-dioxo-witha-2,5,16,24-tetraenolide] | 15.5 ± 0.35 µM | 4.2 ± 0.25 µM | 3.7 |  |
| 4β,16β-dihydroxy-1-oxo-witha-2,5,17(20),24-tetraenolide [Compound 10] |  |  | >2.4 | IC50 [2]: > 40 µM; IC50 [1, 7]: 16.8 ± 0.75 µM |
| CC1=C(CO)C(=O)O[C@@H]([C@@H](C)C2=CC[C@H]3[C@@H]4C[C@H]5O[C@]56[C@@H](O)C=CC(=O)[C@]6(C)[C@H]4CC[C@]23C)C1 [Compound 19, witharistatin] |  | ≤ 0.5 µM | 3.8 | IC50 at 48 h (in vitro): 1.9 ± 0.08 µM; IC50 [3]: 0.5 ± 0.05 µM |
| CC1=C(CO)C(=O)OC(C(C)C2=CCC3C4CC(O)C56C=CC(OO5)C(=O)C6(C)C4CCC23C)C1 (stereo not drawn) [Compound 4, 6β,27-Dihydroxy-2α,5α-dioxan-1-oxo-witha-3,16,24-trien-26,22-olide] |  | 6.2 ± 0.1 µM | 5.1 | IC50 at 48 h [4, 8]: 31.6 ± 0.08 µM |
| CC1=C(CO)C(=O)OC(C(C)C2(O)CCC3C4CC(O)C56C=CC(OO5)C(=O)C6(C)C4CCC32C)C1 (stereo not drawn) [Compound 1, 6β,17α,27-Trihydroxy-2α,5α-dioxan-1-oxo-witha-3,24-dien-26,22-olide] |  |  | >3.1 | IC50 at 48 h [4]: > 40 µM; IC50 [1, 7]: 12.8 ± 0.24 µM |
| CC1=C(C)C(=O)OC(C(C)C2=CCC3C4CC5OC56C(O)C=CC(=O)C6(C)C4CCC23C)C1 (stereo not shown) [Compound 20, 27-deoxy-16-en-withaferin A] | 10 ± 0.61 µM | 4.6 ± 0.35 µM | 2.2 |  |
| CC(=O)OCC1=C(C)CC(C(C)C2CCC3C4CC5OC56C(O)C=CC(=O)C6(C)C4CCC23C)OC1=O (stereo not shown) [Compound 16, 27-acetyl-withaferin A] | 5.7 ± 0.13 µM | ≤ 0.5 µM |  | IC50 [3]: 0.4 ± 0.06 µM |
| CC1=C(CO)C(=O)OC(C(C)C2CCC3C4CC(O)C56C=CC(OO5)C(=O)C6(C)C4CCC23C)C1 (stereo not drawn) [Compound 3, 6β,27-Dihydroxy-2α,5α-dioxan-1-oxo-witha-3,24-dien-26,22-olide] |  | 3.3 ± 0.45 µM | 4.9 | IC50 at 48 h [4, 8]: 16 ± 0.73 µM |
| CC1=C(C)C(=O)OC(C(C)C2CCC3C4CC5OC56C(O)C=CC(=O)C6(C)C4CCC23C)C1 (stereo not drawn) [Compound 15, 5β,6β-epoxy-4β-hydroxy-1-oxo-witha-2,24-dienolide] | 4.6 ± 0.09 µM | ≤ 0.5 µM |  | IC50 [3]: 0.5 ± 0.07 µM |
| CC1=C(CO)C(=O)OC(C(C)C2=CCC3C4CC=C5C(O)C=CC(=O)C5(C)C4CCC23C)C1 (stereo not drawn) [Compound 5, 4β,27-dihydroxy-1-oxo-witha-2,5,16,24-tetraenolide] | 6.4 ± 0.12 µM | 8.2 ± 0.09 µM | 0.8 |  |
| CC1=C(CO)C(=O)O[C@@H]([C@@H](C)[C@H]2CC[C@H]3[C@@H]4C[C@H]5O[C@]56[C@@H](O)[C@@H](O)CC(=O)[C@]6(C)[C@H]4CC[C@]23C)C1 [Compound 24, viscosalactone B] |  | > 40 µM |  | IC50 at 48 h [4, 8]: > 40 µM |
| CC1=C(CO)C(=O)OC(C(C)=C2C(O)CC3C4CC5OC56C(O)C=CC(=O)C6(C)C4CCC23C)C1 (stereo not drawn) [Compound 18, 5β,6β-epoxy-4β,16β,27-trihydroxy-1-oxo-witha-2,17(20),24-trienolide] | 34.7 ± 0.75 µM | 8.2 ± 0.43 µM | 4.2 |  |
| CC(=O)OCC1=C(C)CC(C(C)C2CCC3C4CC5OC56C(O)C(O)CC(=O)C6(C)C4CCC23C)OC1=O (stereo not shown) [Compound 25, 27-O-acetyl-viscosalactone B] | 11.8 ± 0.1 µM | 1.5 ± 0.54 µM | 7.9 | fold more potent than its corresponding hydroxyl derivative 24 ([1]; HL-60 cytotoxic effect, versus 24): 26 fold |
| CC1=C(C)C(=O)OC(C(C)C2CC=C3C4CC5OC56C(O)C=CC(=O)C6(C)C4CCC32C)C1 (stereo not drawn) [Compound 21, 5β,6β-epoxy-4β-hydroxy-1-oxo-22R-witha-2,14,24-trienolide] | 6.2 ± 0.11 µM | 0.9 ± 0.05 µM | 6.9 |  |
| CC1=C(CO)C(=O)OC(C(C)C2CCC3C4CC(O)C5(O)C(O)C=CC(=O)C5(C)C4CCC23C)C1 (stereo not shown) [Compound 26, 2,3-dehydrosomnifericin] | > 40 µM | 13.4 ± 0.85 µM | >3.0 |  |
| CC1=C(CO)C(=O)O[C@@H]([C@@H](C)[C@H]2CC[C@H]3[C@@H]4C[C@H]5O[C@]56[C@@H](O)C=CC(=O)[C@]6(C)[C@H]4CC[C@]23C)C1 [Compound 14, withaferin A] |  |  | 33.0 | IC50 at 48 h [4, 8]: 6.4 ± 0.21 µM; IC50 [1, 7]: 0.2 ± 0.02 µM; IC50 ([1]; read-out: Cytotoxic activity IC50, HL 60, MTT, 48 h incubation, listed as WA): ≤ 0.5 µM |
| CC1=C(CO)C(=O)OC(C(C)C2CCC3C4CC5OC56C(=O)C=CC(=O)C6(C)C4CCC23C)C1 (stereo not shown) [Compound 22, 4-dehydro-withaferin A] | 16.9 ± 0.7 µM | 0.7 ± 0.09 µM | 24.1 |  |
| CC1=C(CO)C(=O)OC(C(C)C2CCC3C4CC(O)C5(C=O)CCC(=O)C5(C)C4CCC23C)C1 (stereo not drawn) [Compound 29, 4β-formyl-6β,27-dihydroxy-1-oxo-witha-24-enolide] |  | 19.2 ± 0.84 µM | >2.1 | IC50 at 48 h [4, 8]: > 40 µM |
| COc1cc([C@@H]2c3cc4c(cc3[C@@H](O[C@@H]3O[C@@H]5CO[C@@H](C)O[C@H]5[C@H](O)[C@H]3O)[C@H]3COC(=O)[C@H]23)OCO4)cc(OC)c1O [Etoposide, reference compound] |  | 2.4 ± 0.1 µM | 8.2 | IC50 at 48 h [4, 8]: 19.5 ± 0.16 µM |
| CC1=C(CO)C(=O)OC(C(C)C2CCC3C4CC(O)C5(C=O)C=CC(=O)C5(C)C4CCC23C)C1 (stereo not drawn) [Compound 28, 4β-formyl-6β,27-dihydroxy-1-oxo-witha-2,24-dienolide] |  | 30.5 ± 0.45 µM | >1.3 | IC50 at 48 h [4]: > 40 µM |
| CC1=C(CO)C(=O)OC(C(C)C2(O)CCC3C4CC(O)C56C=CC(OO5)C(=O)C6(C)C4CCC32C)C1 (stereo not drawn) [Compound 2, 6β,17α,27-Trihydroxy-2β,5β-dioxan-1-oxo-witha-3,24-dien-26,22-olide] |  |  | >1.5 | IC50 [2]: > 40 µM; IC50 [1, 7]: 26.7 ± 0.6 µM |
| 16β,27-dihydroxy-1,4-dioxo-witha-2,5,17(20),24-tetraenolide [Compound 11] |  |  | >1.4 | IC50 [2]: > 40 µM; IC50 [1, 7]: 27.8 ± 0.45 µM |
| CC1=C(CO)C(=O)OC(C(C)C2CCC3C4CC=C5C(O)C=CC(=O)C5(C)C4CCC23C)C1 (stereo not drawn) [Compound 7, 4β,27-dihydroxy-1-oxo-witha-2,5,24-trien olide] | > 40 µM | 15.7 ± 0.04 µM | >2.6 |  |
| CC1=C(CO)C(=O)OC(C(C)C2(O)CCC3C4CC=C5C(O)C=CC(=O)C5(C)C4CCC32C)C1 (stereo not drawn) [Compound 13, 4β,17α,27-trihydroxy-1-oxo-witha-2,5,24-trienolide] |  |  | 1.9 | IC50 [3]: 12.3 ± 0.11 µM; IC50 [5]: 23.8 ± 0.41 µM |
| CC1=C(CO)C(=O)OC(C(C)C2(O)CCC3C4CC=C5C(O)C=CC(=O)C5(C)C4CCC32C)C1 (stereo not drawn) [Compound 12, 4α,17α,27-trihydroxy-1-oxo-witha-2,5,24-trienolide] | > 40 µM | 6.6 ± 0.14 µM | >6.1 | fold more potent than the β-disposition (13) ([1]; HL-60, versus 13): 2 fold |
| CC1=C(CO)C(=O)OC(C(C)C2(O)CCC3C4CC5OC56C(O)C=CC(=O)C6(C)C4CCC32C)C1 (stereo not drawn) [Compound 23, 5β,6β-epoxy-4β,17α,27-trihydroxy-1-oxo-witha-2,24-dienolide] | > 40 µM | 6.5 ± 0.55 µM | >6.2 |  |
| CC1=C(C)C(=O)OC(C(C)C2=CCC3C4CC=C5C(O)C=CC(=O)C5(C)C4CCC23C)C1 (stereo not drawn) [Compound 6, 4β-hydroxy-1-oxo-witha-2,5,16,24-tetraenolide] | 11.5 ± 0.09 µM | 7 ± 0.55 µM | 1.6 |  |
| CC1=C(CO)C(=O)OC(C(C)C2CCC3C4CC(Cl)C5(O)C(O)C=CC(=O)C5(C)C4CCC23C)C1 (stereo not drawn) [Compound 27, 6α-chloro-5β-hydroxywithaferin A] | 7.8 ± 0.36 µM | 1.1 ± 0.2 µM | 7.1 | fold more potent than its corresponding hydroxyl derivative 26 ([1]; HL-60 cytotoxic effect, versus 26): 12 fold |
| 4β,16β,27-trihydroxy-1-oxo-witha-2,5,17(20),24-tetraenolide [Compound 9] |  |  | 1.7 | IC50 [2]: 25.7 ± 0.65 µM; IC50 [1, 7]: 14.8 ± 0.68 µM |
